From US7049321B2, “Methods and pharmaceutical compositions for treatment of central and peripheral nervous system disorders and compounds useful therefor” (Israel Institute for Biological Research, priority 2002, dated 2006)

Assays:
[1] = system: rabbits with nbm lesions; assay: CSF and cortical Aβ in hypocholinergic (nbm-lesioned) rabbits; format: in vivo, New Zealand White rabbits; conditions: 4 weeks
From the text: It is known that experimentally-induced cortical cholinergic denervation results in biochemical elevations of cortical Aβ concentrations and in histologic Aβ deposition (Beach et al, Neurosci Lett 283: 9–12, 2000), and that administration of muscarinic Ml-selective agents to normal animals decreases CSF AP concentrations {Beach et al Brain Res. 905: 220–223, 2001}.
Twenty-eight female New Zealand White rabbits, about 2.5 kg each (young adults) were used. Twenty-one received lesions of the cholinergic nucleus basalis magnocellularis (nbm). The lesion was accomplished with unilateral i.c.v. injections of an immunotoxin consisting of the ribosomal toxin saporin conjugated to the monoclonal antibody ME20.4, which is directed against the low-affinity neurotrophin receptor, p75. The ME20.4 antibody is made against monkey p75 and also recognizes rabbit p75. The dose of immunotoxin was 32.4 μg in 12 μl; this was delivered to the right lateral ventricle 2 mm lateral to the bregma. Seven animals received i.c.v. injections of sterile normal saline (sham lesion). Animals which received the immunotoxin were divided into 3 groups of 7. […] Another group received physostigmine hemisalicylate in normal saline by s.c. osmotic pump at a daily dose of 3 mg/kg. The third group received twice-daily sterile saline s.c. injections. The animals which received a sham lesion were implanted with s.c. osmotic pumps filled with sterile normal saline. Animals were euthanized 4 weeks after surgery. […] Cerebrospinal fluid was taken from the cisterna magna of all animals at the time of sacrifice; the brain was removed and sliced coronally into 0.5 cm slices. […] The other slices were frozen on sheets of dry ice (the other slices are the non-fixed 0.5 cm coronal slices of cerebrum, brainstem and cerebellum).

[2] = system: β-catenin; assay: β-catenin stabilization in rat hippocampal neurons; format: cell-based
Protocol: This study was performed in rat hippocampal primary cell cultures using the methods described by Garrido J L et al. (FASEB J 2002; 16:1982).

[3] = system: ApoE; assay: ApoE synthesis and secretion in primary type 1 astrocytes; format: cell-based, rat
Protocol: Primary cultures of type 1 astrocytes were derived from the cortex of Sprague Dawley rats. The compounds tested were dissolved in the culture media and added to cells for 24, 48, 72 and 96 hrs. Media was then removed and kept frozen until ApoE protein levels were evaluated by immunoblot analysis as described in Poirier et al Neuroscience 55: 81–90 (1993). Alternatively the methods of Cedazo-Minuez et al [Neurosci 105: 651–661, 2001} may be employed.

[4] = target: M3 (human) (Homo sapiens, UniProt P20309); assay: Binding study, M3 (human); conditions: 10 μm
Sequence of M3 (human) (P20309 whole entry): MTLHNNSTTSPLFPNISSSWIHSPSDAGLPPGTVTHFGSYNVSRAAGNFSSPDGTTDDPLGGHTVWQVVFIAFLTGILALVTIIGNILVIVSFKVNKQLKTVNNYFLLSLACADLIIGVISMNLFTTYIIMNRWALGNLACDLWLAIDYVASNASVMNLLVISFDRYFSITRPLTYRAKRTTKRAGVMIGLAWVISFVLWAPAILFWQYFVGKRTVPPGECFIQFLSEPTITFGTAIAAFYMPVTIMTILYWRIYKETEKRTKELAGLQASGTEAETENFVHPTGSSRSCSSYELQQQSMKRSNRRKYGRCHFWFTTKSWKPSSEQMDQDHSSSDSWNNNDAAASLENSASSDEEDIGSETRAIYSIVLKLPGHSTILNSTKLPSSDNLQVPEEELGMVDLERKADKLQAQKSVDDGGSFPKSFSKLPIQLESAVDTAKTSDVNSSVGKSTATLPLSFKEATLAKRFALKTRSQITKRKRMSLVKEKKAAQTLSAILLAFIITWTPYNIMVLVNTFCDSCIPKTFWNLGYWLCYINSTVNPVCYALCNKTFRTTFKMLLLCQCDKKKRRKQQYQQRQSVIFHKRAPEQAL

In the case of `CC[C@@H]1SC2(CCN(C)CC2)NC1=O` [AF267B, (S)-2-ethyl-8-methyl-1-thia-4,8-diaza-spiro[4.5]decan-3-one], the “CSF Aβ (4 kDa band)” value ([1]; 1 mg/kg s.c. twice daily) was “noticeable decrease”, the “CSF sAPPα band intensity” value ([1]; 1 mg/kg s.c. twice daily) was “no significant difference” and the “Histologic Aβ deposition, % of the lesioned, untreated group” value [1] was 12%. The “soluble β-catenin level” value ([2]; 1 μM) was 100%, the “nuclear β-catenin vs control” value ([2]; 1 μM, Aβ1–40 (5 μM)) was 140% and the “soluble β-catenin level” value ([2]; 10 μM) was 300%. For the same molecule, the “soluble β-catenin level” value ([2]; 100 μM) was 350%, the “Aβ-induced degradation of soluble β-catenin” value ([2]; 100 μM, Aβ1–40 (5 μM)) was “this degradation was prevented” and the inhibition at 0.0001 µM ([3]; Rattus norvegicus, Astrocyte, at 0.1 nM, read-out: Inhibition of ApoE production) was 60 to 80%. For the same molecule, the ApoE production ([3]; up to 96 hrs) was “inhibits the production of ApoE”.

For `CC[C@@H]1SC2(CCNCC2)NC1=O` [AF292, (S)-2-Ethyl-1-thia-4,8-diaza-spiro[4.5]decan-3-one], the “Binding, %” value [4] was 55%.
